Laboratory results taken from ChEMBL document CHEMBL1201862, “PubChem BioAssay data set” (2004).
The source made the active and inactive calls.

How the values were obtained:
[1] = molecular target: T1, RNA-binding protein pos-1 (Caenorhabditis elegans, UniProt G5EF15); assay: inhibitors of POS-1/mex-3 RNA binding, dose response, biochemical, fluorescence polarization (AID 1964);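 note: purified POS-1 fused to maltose binding protein made in E. coli; potency of compounds blocking POS-1 binding to fluorescent RNA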
T1 sequence (G5EF15 whole entry): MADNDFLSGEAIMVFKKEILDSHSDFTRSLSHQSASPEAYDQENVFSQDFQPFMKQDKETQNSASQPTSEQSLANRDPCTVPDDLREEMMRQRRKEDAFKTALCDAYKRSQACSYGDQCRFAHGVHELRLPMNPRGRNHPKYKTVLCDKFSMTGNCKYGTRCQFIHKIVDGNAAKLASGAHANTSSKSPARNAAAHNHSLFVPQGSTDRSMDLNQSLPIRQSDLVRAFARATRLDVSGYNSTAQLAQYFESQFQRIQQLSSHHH

[2] = molecular target: T2, Zinc finger protein mex-5 (Caenorhabditis elegans, UniProt Q9XUB2); assay: MEX-5/TCR-2 RNA interaction inhibitors, dose response, biochemical, C. elegans, fluorescence polarization (AID 1960)
T2 sequence (Q9XUB2 whole entry): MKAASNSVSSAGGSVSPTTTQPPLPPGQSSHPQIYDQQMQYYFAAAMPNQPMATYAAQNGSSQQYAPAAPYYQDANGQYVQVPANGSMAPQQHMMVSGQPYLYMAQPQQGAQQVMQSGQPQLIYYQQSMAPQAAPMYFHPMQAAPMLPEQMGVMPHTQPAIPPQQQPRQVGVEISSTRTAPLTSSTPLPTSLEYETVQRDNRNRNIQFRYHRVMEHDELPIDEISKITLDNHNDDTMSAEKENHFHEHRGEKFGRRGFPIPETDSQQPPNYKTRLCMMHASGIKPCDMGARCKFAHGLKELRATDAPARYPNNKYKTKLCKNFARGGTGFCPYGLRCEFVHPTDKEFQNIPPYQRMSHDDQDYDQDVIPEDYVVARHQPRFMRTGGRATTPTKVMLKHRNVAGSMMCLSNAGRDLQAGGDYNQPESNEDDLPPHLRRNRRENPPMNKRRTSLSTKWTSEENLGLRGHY

[3] = molecular target: T3, DNA repair and recombination protein RAD54-like (Homo sapiens, UniProt Q92698); assay: inhibitors of human RAD54 branch migration, confirmation, biochemical, fluorescence, cherry-picked samples, dose series (AID 651657); assay type: functional
T3 sequence (Q92698 whole entry): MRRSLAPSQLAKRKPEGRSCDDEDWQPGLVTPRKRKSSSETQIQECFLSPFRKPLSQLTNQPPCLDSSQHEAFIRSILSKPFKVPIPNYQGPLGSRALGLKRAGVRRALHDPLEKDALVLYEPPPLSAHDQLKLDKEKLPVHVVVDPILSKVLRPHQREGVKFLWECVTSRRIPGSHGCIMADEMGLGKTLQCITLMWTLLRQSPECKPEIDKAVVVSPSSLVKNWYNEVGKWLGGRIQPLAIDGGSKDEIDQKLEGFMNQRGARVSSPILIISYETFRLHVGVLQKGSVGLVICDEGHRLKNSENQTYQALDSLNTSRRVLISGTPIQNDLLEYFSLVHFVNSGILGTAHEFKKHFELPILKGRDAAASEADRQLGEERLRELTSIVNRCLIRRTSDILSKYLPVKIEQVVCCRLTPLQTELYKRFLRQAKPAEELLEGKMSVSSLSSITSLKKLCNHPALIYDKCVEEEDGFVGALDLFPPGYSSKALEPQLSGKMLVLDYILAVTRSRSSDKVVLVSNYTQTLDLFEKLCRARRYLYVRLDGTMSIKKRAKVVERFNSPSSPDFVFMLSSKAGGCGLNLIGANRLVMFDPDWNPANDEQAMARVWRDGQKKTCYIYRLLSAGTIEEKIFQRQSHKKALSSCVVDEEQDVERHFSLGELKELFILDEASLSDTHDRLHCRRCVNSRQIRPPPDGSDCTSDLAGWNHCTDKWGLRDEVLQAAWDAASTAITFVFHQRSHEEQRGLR

[4] = molecular target: T4, DNA repair protein RAD52 homolog (Homo sapiens, UniProt P43351); assay type: functional, biochemical
T4 sequence (P43351 whole entry): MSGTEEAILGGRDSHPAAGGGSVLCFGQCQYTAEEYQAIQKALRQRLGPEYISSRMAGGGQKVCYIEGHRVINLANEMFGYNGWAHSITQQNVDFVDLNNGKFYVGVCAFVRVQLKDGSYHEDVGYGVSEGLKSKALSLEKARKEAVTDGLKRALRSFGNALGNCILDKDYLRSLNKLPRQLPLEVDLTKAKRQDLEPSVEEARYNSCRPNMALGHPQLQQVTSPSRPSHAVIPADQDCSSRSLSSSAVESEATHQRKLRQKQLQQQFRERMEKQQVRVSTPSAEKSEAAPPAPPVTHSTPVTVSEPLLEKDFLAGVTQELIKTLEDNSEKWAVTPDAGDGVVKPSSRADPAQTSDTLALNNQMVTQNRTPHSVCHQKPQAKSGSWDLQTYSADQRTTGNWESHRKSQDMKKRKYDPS

Cytochrome P450 1A2 = molecular target: T5, Cytochrome P450 1A2 (Homo sapiens, UniProt P05177);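 note: PubChem cytochrome P450 panel assay, CYP1A2 panel member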
T5 sequence (P05177 whole entry): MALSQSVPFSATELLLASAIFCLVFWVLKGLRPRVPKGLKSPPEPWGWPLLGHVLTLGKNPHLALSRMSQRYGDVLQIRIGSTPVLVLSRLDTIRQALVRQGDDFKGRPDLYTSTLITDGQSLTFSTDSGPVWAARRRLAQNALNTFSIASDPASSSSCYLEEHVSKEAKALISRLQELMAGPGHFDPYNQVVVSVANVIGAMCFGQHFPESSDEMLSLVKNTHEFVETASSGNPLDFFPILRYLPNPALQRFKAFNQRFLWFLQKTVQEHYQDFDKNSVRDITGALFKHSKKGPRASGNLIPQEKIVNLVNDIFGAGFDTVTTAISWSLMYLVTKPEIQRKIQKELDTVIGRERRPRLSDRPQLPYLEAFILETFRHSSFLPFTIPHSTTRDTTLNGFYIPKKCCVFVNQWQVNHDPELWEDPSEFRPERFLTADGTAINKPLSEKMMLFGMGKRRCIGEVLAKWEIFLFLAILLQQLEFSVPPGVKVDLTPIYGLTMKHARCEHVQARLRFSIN

Cytochrome P450 2C9 = Cytochrome P450 2C9 (Homo sapiens, UniProt P11712)
Cytochrome P450 3A4 = Cytochrome P450 3A4 (Homo sapiens, UniProt P08684);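 note: CYP3A4 tested as one member of a cytochrome P450 panel screen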
HEK293 [5] = assay: NOD1 signaling inhibitors, primary screen, cell-based, luminescence, uHTS (AID 1578); assay type: functional; details: Homo sapiens
HEK293 [6] = assay: cells; assay type: functional, cell-based; details: Homo sapiens
[7] = A Cell Based Secondary Assay To Explore Cytotoxicity of Compounds that Sensitize Mycobacterium Tuberculosis to Beta-Lactam Antibiotics.; assay type: functional
Vero [8] = assay: host cell cytotoxicity of antiviral hits, dose response, cytotoxicity control for West Nile virus antiviral project, secondary assay (AID 1650); assay type: functional; details: Chlorocebus sabaeus
HEK293 [9] = assay: cells; assay type: functional, cell-based; details: Homo sapiens; remark: listed apart in the source
HEK293 [10] = assay: NOD2 signaling inhibitors in MDP-stimulated cells, cell-based, uHTS, luminescence (AID 2001); assay type: functional; details: Homo sapiens
Vero [11] = assay: cells; assay type: functional, cell-based; details: Chlorocebus sabaeus
Vero [12] = assay: cells; assay type: functional; details: Chlorocebus sabaeus
[13] = molecular target: Glucose-6-phosphate 1-dehydrogenase (Homo sapiens, UniProt P11413); assay: human G6PD enzyme inhibitors, dose response, selectivity assay for P. falciparum G6PD inhibitor project, biochemical, fluorescence (AID 504792); assay type: functional
[14] = molecular target: Heat shock protein HSP 90-alpha (Homo sapiens, UniProt P07900); assay type: functional, organism-based
[15] = molecular target: T6, Probable nicotinate-nucleotide adenylyltransferase (Staphylococcus aureus (strain N315), UniProt P65502); assay type: functional, Staphylococcus aureus subsp. aureus N315;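 for IC50 Mean: confirmatory dose-response retesting of NadD inhibitor hits first found in an ultra-high-throughput screen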
[16] = molecular target: T6, Probable nicotinate-nucleotide adenylyltransferase; assay type: functional, Staphylococcus aureus subsp. aureus N315; details: read-out: IC50_Mean
[17] = HeLa cell cytotoxicity, dose response, cytotoxicity control for MgcRacGAP inhibitor project (AID 624300); assay type: functional
[18] = molecular target: T7, Rac GTPase-activating protein 1 (Homo sapiens, UniProt Q9H0H5); assay: MgcRacGAP GTPase-activating activity inhibitors, confirmation, biochemical, ADP Hunter fluorescence, primary and confirmatory (AID 624330); assay type: functional
T7 sequence (Q9H0H5 whole entry): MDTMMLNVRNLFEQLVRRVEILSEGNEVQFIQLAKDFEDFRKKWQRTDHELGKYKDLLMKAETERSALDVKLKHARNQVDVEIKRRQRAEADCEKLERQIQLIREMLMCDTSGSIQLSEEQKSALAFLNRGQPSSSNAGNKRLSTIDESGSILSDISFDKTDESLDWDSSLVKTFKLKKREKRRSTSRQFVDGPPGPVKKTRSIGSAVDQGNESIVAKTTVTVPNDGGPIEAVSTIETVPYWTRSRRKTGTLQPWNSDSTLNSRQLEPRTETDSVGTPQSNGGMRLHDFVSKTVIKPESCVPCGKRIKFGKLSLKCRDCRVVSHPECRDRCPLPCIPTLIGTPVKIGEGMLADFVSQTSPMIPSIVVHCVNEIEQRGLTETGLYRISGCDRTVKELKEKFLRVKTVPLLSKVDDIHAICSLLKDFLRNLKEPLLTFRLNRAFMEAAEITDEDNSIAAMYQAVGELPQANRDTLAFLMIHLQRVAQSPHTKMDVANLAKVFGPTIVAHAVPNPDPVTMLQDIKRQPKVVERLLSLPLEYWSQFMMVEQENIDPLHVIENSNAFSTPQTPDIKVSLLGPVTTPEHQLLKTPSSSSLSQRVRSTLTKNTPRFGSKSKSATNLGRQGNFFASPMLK

HEK293 [19] = assay: cytotoxicity in HEK293T NF-kB-Luc cells, SAR follow-up, cytotoxicity control for NF-kB activator project, cell-based, resazurin fluorescence (AID 493251); assay type: functional; details: Homo sapiens
P388/ADR = assay: cells; assay type: functional; details: Mus musculus
SN12K1 = assay: cells; assay type: functional; details: Homo sapiens
P388 = assay: cells; assay type: functional; details: Mus musculus
[20] = molecular target: T8, Hepatocyte nuclear factor 4-alpha (Homo sapiens, UniProt P41235); assay type: functional, cell-based;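 note: biochemical luminescence-based dose-response counterscreen measuring inhibition of HNF4 dimerization, run alongside a screen for blockers of ABHD5–perilipin-5 interaction; split luciferase complementation of HNF4 fusion proteins in cell lysate measuring dimerization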
T8 sequence (P41235 whole entry): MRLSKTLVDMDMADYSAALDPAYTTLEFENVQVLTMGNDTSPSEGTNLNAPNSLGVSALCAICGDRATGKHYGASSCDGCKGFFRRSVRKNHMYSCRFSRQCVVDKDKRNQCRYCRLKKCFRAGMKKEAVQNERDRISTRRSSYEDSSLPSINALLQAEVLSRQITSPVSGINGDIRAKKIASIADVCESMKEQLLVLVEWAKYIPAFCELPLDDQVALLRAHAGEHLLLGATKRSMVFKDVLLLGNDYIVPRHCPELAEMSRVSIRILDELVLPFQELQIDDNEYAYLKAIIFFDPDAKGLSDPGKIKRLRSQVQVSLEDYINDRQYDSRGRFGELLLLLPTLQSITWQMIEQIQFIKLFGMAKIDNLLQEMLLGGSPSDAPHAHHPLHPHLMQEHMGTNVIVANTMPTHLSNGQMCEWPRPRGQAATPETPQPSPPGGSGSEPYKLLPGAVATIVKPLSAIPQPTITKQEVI

T6 sequence (P65502 whole entry): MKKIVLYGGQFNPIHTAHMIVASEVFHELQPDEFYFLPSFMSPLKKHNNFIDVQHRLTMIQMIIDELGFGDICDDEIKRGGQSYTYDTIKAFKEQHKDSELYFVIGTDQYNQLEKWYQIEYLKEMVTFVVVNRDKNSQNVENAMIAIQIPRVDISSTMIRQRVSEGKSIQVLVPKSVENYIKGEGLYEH
Glucose-6-phosphate 1-dehydrogenase, sequence (P11413 whole entry): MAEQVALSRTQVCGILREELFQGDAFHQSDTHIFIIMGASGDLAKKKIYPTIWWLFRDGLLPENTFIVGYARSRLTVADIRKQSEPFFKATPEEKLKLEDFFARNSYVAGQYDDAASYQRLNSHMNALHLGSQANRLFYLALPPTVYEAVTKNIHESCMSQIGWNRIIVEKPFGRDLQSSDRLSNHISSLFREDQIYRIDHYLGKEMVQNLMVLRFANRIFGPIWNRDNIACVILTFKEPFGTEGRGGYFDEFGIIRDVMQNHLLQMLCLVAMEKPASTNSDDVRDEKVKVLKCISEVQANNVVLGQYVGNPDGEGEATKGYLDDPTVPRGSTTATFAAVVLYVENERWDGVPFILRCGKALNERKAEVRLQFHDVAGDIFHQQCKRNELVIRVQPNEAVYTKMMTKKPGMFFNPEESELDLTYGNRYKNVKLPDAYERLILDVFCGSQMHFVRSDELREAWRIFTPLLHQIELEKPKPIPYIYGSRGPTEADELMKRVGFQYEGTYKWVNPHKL
Cytochrome P450 3A4, sequence (P08684 whole entry): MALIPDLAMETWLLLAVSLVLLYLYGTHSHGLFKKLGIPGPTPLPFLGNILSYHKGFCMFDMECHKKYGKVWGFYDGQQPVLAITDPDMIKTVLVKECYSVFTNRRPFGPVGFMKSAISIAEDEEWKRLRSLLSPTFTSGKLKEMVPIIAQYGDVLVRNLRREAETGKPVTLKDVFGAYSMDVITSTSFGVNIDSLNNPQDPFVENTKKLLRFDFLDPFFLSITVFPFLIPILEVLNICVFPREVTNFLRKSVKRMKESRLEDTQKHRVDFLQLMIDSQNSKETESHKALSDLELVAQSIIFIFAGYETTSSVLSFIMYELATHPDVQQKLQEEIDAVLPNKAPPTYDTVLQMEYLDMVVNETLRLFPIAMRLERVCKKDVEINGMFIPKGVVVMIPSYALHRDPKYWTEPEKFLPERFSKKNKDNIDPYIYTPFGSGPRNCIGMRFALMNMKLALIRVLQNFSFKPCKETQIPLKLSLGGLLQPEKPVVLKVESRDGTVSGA
Cytochrome P450 2C9, sequence (P11712 whole entry): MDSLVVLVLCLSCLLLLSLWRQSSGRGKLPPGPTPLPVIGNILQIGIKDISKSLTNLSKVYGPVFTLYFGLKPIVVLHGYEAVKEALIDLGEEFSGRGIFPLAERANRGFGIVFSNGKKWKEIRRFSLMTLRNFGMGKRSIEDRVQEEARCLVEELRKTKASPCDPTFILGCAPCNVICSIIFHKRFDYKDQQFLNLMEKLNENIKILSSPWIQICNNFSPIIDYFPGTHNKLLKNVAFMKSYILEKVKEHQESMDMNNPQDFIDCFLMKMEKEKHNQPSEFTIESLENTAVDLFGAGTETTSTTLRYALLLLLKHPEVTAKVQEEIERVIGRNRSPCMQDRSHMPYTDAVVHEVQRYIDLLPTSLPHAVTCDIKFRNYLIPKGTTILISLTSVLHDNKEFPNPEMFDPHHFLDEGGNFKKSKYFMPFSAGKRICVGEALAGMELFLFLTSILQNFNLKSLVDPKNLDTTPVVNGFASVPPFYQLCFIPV

CCNC(=O)c1cc2c(=O)n3cccc(C)c3nc2n(CCc2ccccc2)c1=N
EC50 [1]: 4.95 µM (inconclusive)
EC50 [2]: 30 µM (active)
AC50 [3]: 17.9 µM (active)

CCOC(=O)c1c(NC(=O)c2ccc(S(=O)(=O)N3CCOCC3)cc2)sc2c1CCN(C)C2
AC50 [3]: 15.3 µM (active)
AC50 [4]: 11.6 µM (active)
AC50 (Cytochrome P450 1A2): 12.6 µM (inconclusive)
AC50 (Cytochrome P450 2C9): 14.1 µM (inconclusive)
AC50 (Cytochrome P450 3A4): inconclusive

N=c1c(C(=O)NCCN2CCOCC2)cc2c(=O)n3ccccc3nc2n1CCc1ccccc1
EC50 [1]: > 300 µM (not active)
EC50 [2]: > 300 µM (not active)
AC50 [3]: 25.2 µM (active)
AC50 [4]: 10.5 µM (active)

Cn1c(/C=C/c2ccc(Cl)cc2)c([N+](=O)[O-])c(=O)n(C)c1=O
EC50 (HEK293 [5]): 16 µM (active)
IC50 (HEK293 [6]): 8.13 µM (active)
CC50 [7]: 30 µM (active)
CC50 (Vero [8]): 15.7 µM (active)
IC50 (HEK293 [9]): > 20 µM (inactive)
IC50 (HEK293 [10]): 8.84 µM (active)
IC50 (Vero [11]): > 25 µM (active)
CC50 (Vero [12]): 19.1 µM (active)

O=[N+]([O-])c1cccc(SSc2cccc([N+](=O)[O-])c2)c1
IC50 [13]: > 80 µM (inactive)
AC50 [14]: 4.25 µM (active)
IC50 [15]: 1.62 µM (active)
IC50 [16]: 3.73 µM (active)
CC50 [17]: 100 µM (active)
IC50 [18]: 53.9 µM (active)

COc1ccc(-c2nc(CSCC(=O)NC3CC3)c(C)o2)cc1
IC50 (HEK293 [19]): > 80 µM (inactive)

Cc1ccc2nc3c(C(=O)NCCN(C)C)cccc3cc2c1
GI50 (P388/ADR): 1.85 µM (inactive)
GI50 (SN12K1): 0.968 µM (active)
GI50 (P388): 0.414 µM (active)

CCCCCNC(=O)C(c1ccc(C(F)(F)F)cc1)n1c(=O)c(-c2ccco2)nc2ccccc21 (stereo not given)
IC50 [20]: 2.85 µM (active)

CC1OC1C(=O)C1(O)C(C)C(O)C23OC2(C(O)c2c(O)cccc2C3=O)C1O (stereo not given) [CERVICARCIN]
GI50 (P388/ADR): 0.18 µM (active)
GI50 (SN12K1): 0.225 µM (active)
GI50 (P388): 0.144 µM (active)

COc1ccc2c3c1O[C@H]1C[C@@H](O)C=C[C@@]31CCN(C)C2 [GALANTAMINE]
GI50 (P388/ADR): > 150 µM (inactive)
GI50 (SN12K1): > 150 µM (inactive)
GI50 (P388): > 150 µM (inactive)

O=c1cc[nH]c(=O)[nH]1 [URACIL]
GI50 (P388/ADR): 292 µM (inactive)
GI50 (SN12K1): 315 µM (inactive)
GI50 (P388): 164 µM (inactive)
